These results are taken from PubChem BioAssay (NCI).

Among the test systems are MALME-3M melanoma; COLO 205 colon; IGROV1 ovarian; HCT-15 colon; SN12C renal; SF-295 CNS; SK-MEL-5 melanoma; HCC-2998 colon; UO-31 renal; TK-10 renal.
Common to all, as to assay: DTP human tumour cell line panel, 48 h

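Five concentrations, 48 hours, 96-well plates. GI50: concentration for 50% inhibition of growth. TGI is the concentration that stops growth completely.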 Where only a bound is given, the exact number is not on record here.

In the case of `COC(=O)C1(F)C(=O)NC(=O)NC1O` (stereo not given), the TGI with MALME-3M melanoma, in the assay on COLO 205 colon, with IGROV1 ovarian, with HCT-15 colon, with SN12C renal and in the assay on SF-295 CNS was greater than 100 µM throughout. Besides, the TGI with SK-MEL-5 melanoma, with HCC-2998 colon, in the assay with UO-31 renal and with TK-10 renal was greater than 100 µM each time.

With `Cc1cc(Cc2cc(C)cc(C(C)(C)C)c2O)c(O)c(C(C)(C)C)c1`, the GI50 (as a rule, the concentration that inhibits growth by half) in the assay with MALME-3M melanoma is 5.3 µM; in the assay on COLO 205 colon, 6.73 µM; with IGROV1 ovarian, 5.24 µM; with HCT-15 colon it was 4.29 µM; with SN12C renal, 11.9 µM; in the assay on SF-295 CNS, 2.54 µM. In addition, the GI50 in the assay on SK-MEL-5 melanoma was 10.6 µM; in the assay with HCC-2998 colon, 4.3 µM; in the assay with UO-31 renal, 4.58 µM; with TK-10 renal, 8.22 µM. For the same compound, the TGI (as a rule, the concentration giving total growth inhibition) with MALME-3M melanoma is 20 µM; in the assay on COLO 205 colon, 19.6 µM; in the assay on IGROV1 ovarian, 16.5 µM; in the assay with HCT-15 colon, 14.5 µM; with SN12C renal, 24.1 µM; with SF-295 CNS, 6.23 µM. Moreover, the TGI was 22.4 µM in the assay on SK-MEL-5 melanoma, 15.9 µM in the assay on HCC-2998 colon, 19 µM in the assay with UO-31 renal and 21.3 µM in the assay with TK-10 renal.

As to `O=C1Nc2cc([N+](=O)[O-])ccc2NC1/C(=N\Nc1ccccc1)C(O)c1cccc([N+](=O)[O-])c1` (stereo not given), the TGI in the assay on MALME-3M melanoma is greater than 100 µM; in the assay on COLO 205 colon it was greater than 100 µM; in the assay with IGROV1 ovarian, greater than 100 µM; in the assay with HCT-15 colon, 44.7 µM; in the assay on SN12C renal, greater than 100 µM; in the assay on SF-295 CNS, greater than 100 µM. For the same compound, the TGI in the assay with SK-MEL-5 melanoma is 45.1 µM; with HCC-2998 colon it was greater than 100 µM; in the assay on UO-31 renal it was greater than 100 µM; in the assay with TK-10 renal, greater than 100 µM.

Turning to `COc1ccc(Cl)cc1NC(=O)C(Br)C(Br)C(=O)O` (stereo not given), the GI50 is 9.88 µM with MALME-3M melanoma; 18.1 µM in the assay on COLO 205 colon; 33.2 µM in the assay on IGROV1 ovarian; 10.2 µM in the assay with HCT-15 colon; 4.02 µM in the assay on SN12C renal; 38.9 µM in the assay on SF-295 CNS. Besides, the GI50 is 2.39 µM with SK-MEL-5 melanoma, 8.25 µM in the assay on HCC-2998 colon, 19.2 µM in the assay with UO-31 renal and 6.59 µM in the assay with TK-10 renal. For the same compound, the TGI is 28.8 µM in the assay on MALME-3M melanoma; 34 µM in the assay with COLO 205 colon; greater than 73.5 µM with IGROV1 ovarian; 32.2 µM with HCT-15 colon; 18.4 µM in the assay on SN12C renal; greater than 100 µM in the assay with SF-295 CNS. Further, the TGI in the assay with SK-MEL-5 melanoma amounted to 7.1 µM; in the assay with HCC-2998 colon, 22.2 µM; in the assay on UO-31 renal, 43.6 µM; in the assay with TK-10 renal, 28 µM.

As for `COc1ccc(-n2c3c(c4c(CN5CCOCC5)c(O)ccc42)CCc2ccccc2C3=O)cc1`, the GI50 in the assay with MALME-3M melanoma was greater than 100 µM; in the assay on COLO 205 colon it was greater than 100 µM; with IGROV1 ovarian, 37.6 µM; with HCT-15 colon, greater than 100 µM; with SN12C renal it was 43.3 µM; in the assay on SF-295 CNS, greater than 100 µM. The GI50 in the assay on SK-MEL-5 melanoma is 63.1 µM; with HCC-2998 colon, greater than 100 µM; in the assay on UO-31 renal it was greater than 100 µM; in the assay with TK-10 renal, greater than 100 µM. The TGI in the assay on MALME-3M melanoma, in the assay on COLO 205 colon, in the assay on IGROV1 ovarian, with HCT-15 colon, with SN12C renal and in the assay on SF-295 CNS was greater than 100 µM in each case. For the same compound, the TGI in the assay on SK-MEL-5 melanoma, with HCC-2998 colon, in the assay with UO-31 renal and in the assay with TK-10 renal was greater than 100 µM in each case.

Regarding `Cc1cc(NS(=O)(=O)c2ccc(NC(=O)c3cccc4c(Nc5ccc(S(=O)(=O)N=C(N)N)cc5)c5ccccc5nc34)cc2)no1`, the TGI in the assay with MALME-3M melanoma, in the assay on COLO 205 colon, in the assay on IGROV1 ovarian, with HCT-15 colon, in the assay on SN12C renal and in the assay on SF-295 CNS was greater than 100 µM in each case. For the same compound, the TGI in the assay on SK-MEL-5 melanoma, in the assay on HCC-2998 colon, with UO-31 renal and in the assay on TK-10 renal was greater than 100 µM in each case.

In the case of `O=C(C(=O)N1CC2C=CC1CC2)c1c[nH]c2ccccc12` (stereo not given), the TGI in the assay with MALME-3M melanoma, in the assay on COLO 205 colon, in the assay with IGROV1 ovarian, in the assay on HCT-15 colon, in the assay on SN12C renal and with SF-295 CNS was greater than 100 µM each time. For the same compound, the TGI with SK-MEL-5 melanoma, with HCC-2998 colon, with UO-31 renal and with TK-10 renal was greater than 100 µM each time.

In the case of `CC(C)NC(=O)OCc1c(COC(=O)NC(C)C)c(-c2ccc(Cl)cc2)n2c1CCC2`, the GI50 in the assay with MALME-3M melanoma was 2.36 µM; in the assay with COLO 205 colon, 4.26 µM; in the assay on IGROV1 ovarian, 1.59 µM; in the assay with HCT-15 colon, 4.07 µM; in the assay on SN12C renal, 2.29 µM; with SF-295 CNS, 1.58 µM. Further, the GI50 in the assay with SK-MEL-5 melanoma is 5.21 µM; in the assay on HCC-2998 colon it was 6.77 µM; with UO-31 renal, 2.05 µM; in the assay on TK-10 renal, 1.98 µM. Moreover, the TGI is 9.69 µM in the assay on MALME-3M melanoma; 17.1 µM in the assay with COLO 205 colon; 10.2 µM in the assay with IGROV1 ovarian; greater than 50.1 µM in the assay on HCT-15 colon; 15.4 µM with SN12C renal; 10.6 µM in the assay with SF-295 CNS. Also, the TGI is 18.3 µM in the assay on SK-MEL-5 melanoma, 20.4 µM in the assay on HCC-2998 colon, 6.8 µM in the assay on UO-31 renal and 7.97 µM in the assay on TK-10 renal.

As to `O=C1c2c(nc3ccccc3c2-c2ccccc2)CN1Nc1ccccn1`, the TGI in the assay with MALME-3M melanoma, with COLO 205 colon, with IGROV1 ovarian, in the assay on HCT-15 colon, with SN12C renal and with SF-295 CNS was greater than 100 µM in each case. Besides, the TGI was greater than 100 µM in the assay on SK-MEL-5 melanoma, greater than 100 µM in the assay on HCC-2998 colon, 51.6 µM in the assay on UO-31 renal and greater than 100 µM in the assay with TK-10 renal.

In the case of `C1OC1CO[C@@H]1CO[C@H]2[C@@H]1OC[C@H]2OCC1CO1` (stereo not given in full), the TGI in the assay with MALME-3M melanoma, in the assay on COLO 205 colon, in the assay with IGROV1 ovarian, with HCT-15 colon, in the assay on SN12C renal and in the assay on SF-295 CNS was greater than 100 µM throughout. Also, the TGI in the assay with SK-MEL-5 melanoma, in the assay on HCC-2998 colon, in the assay on UO-31 renal and in the assay with TK-10 renal was greater than 100 µM in each case.
